Data: patent US20240392302A1, “METHOD FOR DETECTING AND QUANTIFYING RNA” (FLUORESCENCE DIAGNOSIS (SHANGHAI) BIOTECH COMPANY LTD., priority 2021, published 2024)

How the values were obtained:
[1] = Function detection of the nucleic acid aptamer: fluorescence activation of I-5-14 by N16-1, its mutants and base-modified forms; format: biochemical; details: for Activation Multiple: 0.5 μM I-5-14 with 2.5 μM RNA
Experimental: A primer containing T7 promoter was used for amplification of corresponding cDNA of RNA to be detected, and T7 RNA polymerase (purchased from Fermentas) was used for obtaining RNA by means of transcription with recovered double-stranded cDNA as a template. 10 μL of 3 M NaAc and 115 μL of DEPC water were added into 20 μL of transcription system, and were mixed well before 150 μL of phenol chloroform-[…] mixture (phenol:chloroform:[…]=25:24:1) was added; then the mixture was mixed well by means of oscillation, and the supernatant was taken after centrifugation at 10,000 rpm for 5 min. An equal volume of chloroform solution was added and was mix well by means of oscillation, and then the supernatant was taken after centrifugation at 10,000 rpm for 5 min; the process was repeated once. 2.5 times the volume of anhydrous ethanol was added into the supernatant, and the mixture was placed in a refrigerator at −20° C. for 30 min and was subject to centrifugation at 12,000 rpm at 4° C. for 5 min; then the supernatant was removed, and the precipitation was cleaned twice with 75% pre-cooled anhydrous ethanol. After volatilization of the ethanol, the precipitation was re-suspended with an appropriate amount of screening buffer, and then was treated at 75° C. for 5 min and was placed at room temperature for more than 10 min for subsequent experiments.
(§1) Nucleic acid aptamer molecules of N16 or N16 mutants were prepared by using the commonly-used experimental method (I), 2.5 μM of nucleic acid aptamer molecules and 0.5 μM of fluorophore molecules were incubated in a detection buffer (40 mM of HEPES, pH 7.4, 125 mM of KCl, 5 mM of MgCl2, 5% DMSO), and the maximum excitation peak and the maximum emission peak of the fluorescence of the nucleic acid aptamer-fluorophore molecular complex were detected with Synergy Neo2 multifunctional enzyme-labeler. Synergy Neo2 multifunctional enzyme-labeler was used again to detect fluorescence intensity of the nucleic acid aptamer-fluorophore molecular complex under its maximum excitation and emission conditions, the control sample ([…] of fluorophore molecules without nucleic acid aptamer) was also measured under the same conditions, and the ratio of fluorescence intensity was calculated. For example, as for fluorescence of the complex formed by 2.5 μM of N16-1 nucleic acid aptamer and 0.5 μM of I-5-14 fluorophore molecules, the maximum excitation peak is 512 nm and the maximum emission peak is 574 nm. It was detected by the Synergy Neo2 multifunctional enzyme-labeler that the fluorescence intensity of the complex at an excitation condition of 512±10 nm and an emission condition of 574 nm±10 nm was 49,088, while the fluorescence intensity of the control (0.5 μM of I-5-14 fluorophore molecules) under the same detection conditions was 399, so the activation multiple of N16-1 nucleic acid aptamer to I-5-14 fluorophore molecules was 123.
According to the results, most N16-1 mutants with a single base mutation retained a relatively strong fluorescence activation effect (no smaller than 2 times) on I-5-14 (Table 2). Some N16-1 mutants with 2 to 5 base mutations still retained a relatively strong fluorescence activation effect (greater than 20 times) for I-5-14 (Table 3). In a word, many single-base and multi-base mutants of N16-1 might still retain the aptamer function of activating the 1-5-14 fluorophore molecules.

[2] = tested on: F30-N16-1 RNA aptamer molecules; experiment: Binding of F30-N16-1 RNA aptamer molecules with different fluorescent molecules (fluorescence spectrum, activation multiple); format: biochemical
Experimental: as §1
F30-N16-1 RNA aptamer molecules were prepared by using the commonly-used experimental method (I), and were used for detecting basic properties, including fluorescence spectrum and fluorescence activation multiple, of the binding of I-5-14 analogues with N16.

[3] = Spectral properties (excitation, emission, light absorption) of N16-1-I-5-14 complex; format: physicochemical; details: 2 μM I-5-14 with 10 μM N16-1, or 5 μM pure I-5-14
Experimental: In order to detect the spectral properties of N16-1-I-5-14 complex, N16-1 (SEQ ID NO: 1) RNA was prepared by using the commonly-used experimental method (I). 1 μM of I-5-14 was incubated with 5 μM of N16-1. According to the results, the maximum excitation light of N16-1-I-5-14 complex was 512 nm, and the maximum emission light thereof was 574 nm (FIG. 3B).
In order to detect the difference between the light absorption of N16-1-I-5-14 complex and that of I-5-14 fluorophore molecules per se, 2 μM of I-5-14 incubated with 10 μM of N16-1, or 5 μM of pure I-5-14 was used for detecting the light absorption of I-5-14 and that of N16-1-I-5-14 complex respectively.

[4] = tested on: BL21 (DE3, Star) Escherichia coli strain expressing F30-N16-1; experiment: Labeling of RNA in bacteria by F30-N16-1-I-5-14 complex; format: cell-based; details: F30-N16-1 induced with 1 mM IPTG 4 h; PBS with 2 μM I-5-14
Source text: In order to detect the effect of F30-N16-1-I-5-14 in bacteria, a bacterial expression plasmid expressing F30-N16-1 (SEQ ID NO: 2) was constructed first. F30-N16-1 in Example 2 was amplified with primers, pET28a was amplified with primers so as to remove the promoter and polyclonal site region, and then the F30-N16-1 DNA fragment obtained by means of amplification was connected to pET28a linearized vector by using the experimental method (III), and the obtained recombinant plasmid was named as pET28a-T7-F30-N16-1.
BL21 (DE3, Star) Escherichia coli strain was transformed with recombinant plasmid pET28a-T7-F30-N16-1, and monoclone was picked and cultured at 37° C.; when OD600 is about 0.2, 1 mM of IPTG was added to induce the expression of F30-N16-1, and bacteria were collected 4 h later; resuspension was performed with a PBS solution containing 2 μM of I-5-14. BL21 (DE3, Star) Escherichia coli with transformed pET28a empty vector served as control.

[5] = tested on: 293T/17 cells expressing F30-N16-1; experiment: Labeling of RNA in mammalian cells by F30-N16-1 and I-5-14; format: cell-based; details: 1 μm of I-5-14 added 36 h after transfection
Experimental: Main imaging experiments in the examples were carried out by using a confocal laser microscope Leica SP8 equipped with white laser, and an HCXPL APO 63×1.47 oil mirror and a HyD detector were used.
In order to detect labeling of RNA in mammalian cells by using F30-N16-1 and I-5-14, a mammalian cell expression plasmid expressing F30-N16-1 (SEQ ID NO: 2) was constructed. F30-N16-1 in Example 9 was amplified with primers P1, P2, and P3, respectively.
These fragments were inserted into pLKO.1 puro vector by using the experimental method (III), an expression vector obtained thereby was named as pLKO.1-F30-N16-1, and the plasmid expressed F30-N16-1.
293T/17 cells were transfected with pLKO.1-F30-N16-1 plasmid, […] of I-5-14 was added 36 h later so as to label F30-N16-1, cells not expressing the corresponding aptamer served as control, and the labeling effect was detected by using experimental method (V).

RNA aptamers = details: cited from earlier work
[6] = Binding constant of N16-1 and I-5-14; details: 10 nM N16-1 with I-5-14 of different concentrations
Experimental: In order to detect the binding constant of N16-1 and I-5-14, 10 nM of N16-1 was incubated with I-5-14 of different concentrations, so that fluorescence values thereof could be detected. According to the results, the binding constant of N16-1 and I-5-14 was 15.69 nM (FIG. 3D).

[7] = N16-1 as a label for RNA extraction and purification; details: total RNA of COS-7 cells; eluent vs crushed supernatant, incubated with I-5-14
Experimental: In order to detect the application of N16-1 to RNA extraction and purification, the pCDNA3.1/hygro(+)-ACTB-N16-1 recombinant plasmids in Example 13 were transfected into COS-7 cells, cells were collected 24 h later, and total RNA of cells was extracted by using Eastep Super total RNA extraction kit (Promega). The extracted total RNA dissolved in a buffer solution having a pH value of 7.4 and containing 40 mM of HEPES, 125 mM of KCl and 5 mM of MgCl2, and was incubated at 70° C. for 10 min, and then was placed at room temperature for more than 30 min.
500 μL of Activated Thiol Sepharose 4B (GE Healthcare) was taken and was washed twice with 500 μL of PBS, and PBS containing 10 mM of TCEP (Sigma) was added for incubation at room temperature for 1 h. 500 μL of PBS was used for cleaning twice, I-5-14 fluorophore molecules (Mal-I-5-14) containing maleic amide were added for reaction at room temperature for 30 min, and then 500 μL of PBS was used for cleaning for three times. […]
With crushed supernatant of blank cells as control, the fluorescence of the crushed supernatant of cells incubated with fluorophore I-5-14, and that of the eluent after final high temperature elution incubated with fluorophore I-5-14 were respectively detected.

[8] = complex of 2.5 μM N16-1 and 0.5 μM I-5-14

CN(CCO)c1ccc(/C=C2\SC(=S)NC2=O)cc1 [I-5-14]
fluorescence intensity of the control ([1]; 0.5 μM I-5-14 without nucleic acid aptamer, same detection conditions): 399 | Maximum emission peak (nm) ([2]; complex with F30-N16-1): 574 nm | Maximum excitation peak (nm) ([2]; complex with F30-N16-1): 513 nm | Activation Multiple ([2]; fluorophore with F30-N16-1): 123 | maximum light absorption [3]: 477 nm | fluorescence of bacteria [4]: bright yellow fluorescence | labeling effect (fluorescence imaging) [5]: very bright yellow fluorescence

CN(C)c1ccc(C(=C2C=CC(=[N+](C)C)C=C2)c2ccccc2)cc1 [MG, malachite green]
fluorescence enhancement multiple (RNA aptamers): 2360

N16-1: nucleic acid aptamer with a sequence SEQ ID NO: 1 (GGGCNCCAGGNGCNGCNNCGGCAGGNAACGGACNNAGANCCACNGNACGCCC; RNA, backbone and the base at N not given here)
fluorescence intensity of the complex ([1]; 2.5 μM N16-1, 0.5 μM I-5-14, excitation 512±10 nm, emission 574 nm±10 nm): 49,088 | activation multiple of N16-1 nucleic acid aptamer to I-5-14 fluorophore molecules ([1]; 2.5 μM N16-1, 0.5 μM I-5-14, excitation 512±10 nm, emission 574±10 nm): 123 | Activation Multiple ([1]; N16-1 mutants containing a single base mutation): 123 | Activation Multiple ([1]; N16-1 mutants containing multi-base mutation): 123 | maximum emission peak [1, 8]: 574 nm | maximum excitation peak [1, 8]: 512 nm | Kd [6]: 15.7 nM

B1: ACTB-N16-1: ACTB-N16-1 chimeric RNA, SEQ ID NO: 13 (nucleic acid)
chain: ANGGANGANGANANCGCCGCGCNCGNCGNCGACAACGGCNCCGGCANGNGCAAGGCCGGCNNCGCGGGCGACGANGCCCCCCGGGCCGNCNNCCCCNCCANCGNGGGGCGCCCCAGGCACCAGGGCGNGANGGNGGGCANGGGNCAGAAGGANNCCNANGNGGGCGACGAGGCCCAGAGCAAGAGAGGCANCCNCACCCNGAAGNACCCCANCGAGCACGGCANCGNCACCAACNGGGACGACANGGAGAAAANCNGGCACCACACCNNCNACAANGAGCNGCGNGNGGCNCCCGAGGAGCACCCCGNGCNGCNGACCGAGGCCCCCCNGAACCCCAAGGCCAACCGCGAGAAGANGACCCAGANCANGNNNGAGACCNNCAACACCCCAGCCANGNACGNNGCNANCCAGGCNGNGCNANCCCNGNACGCCNCNGGCCGNACCACNGGCANCGNGANGGACNCCGGNGACGGGGNCACCCACACNGNGCCCANCNACGAGGGGNANGCCCNCCCCCANGCCANCCNGCGNCNGGACCNGGCNGGCCGGGACCNGACNGACNACCNCANGAAGANCCNCACCGAGCGCGGCNACAGCNNCACCACCACGGCCGAGCGGGAAANCGNGCGNGACANNAAGGAGAAGCNGNGCNACGNCGCCCNGGACNNCGAGCAAGAGANGGCCACGGCNGCNNCCAGCNCCNCCCNGGAGAAGAGCNACGAGCNGCCNGACGGCCAGGNCANCACCANNGGCAANGAGCGGNNCCGCNGCCCNGAGGCACNCNNCCAGCCNNCCNNCCNGGGCANGGAGNCCNGNGGCANCCACGAAACNACCNNCAACNCCANCANGAAGNGNGACGNGGACANCCGCAAAGACCNGNACGCCAACACAGNGCNGNCNGGCGGCACCACCANGNACCCNGGCANNGCCGACAGGANGCAGAAGGAGANCACNGCCCNGGCACCCAGCACAANGAAGANCAAGANCANNGCNCCNCCNGAGCGCAAGNACNCCGNGNGGANCGGCGGCNCCANCCNGGCCNCGCNGNCCACCNNCCAGCAGANGNGGANCAGCAAGCAGGAGNANGACGAGNCCGGCCCCNCCANCGNCCACCGCAAANGCNNCNAGCNCGAGGCCGCGGGCNCCAGGNGCNGCNNCGGCAGGNAACGGACNNAGANCCACNGNACGCCCGCGGC
enrichment of RNA on Mal-I-5-14 microbeads [7]: well enriched
